Here are results for three compounds from patent publication US12239643B2, “Therapeutic agent for inflammatory diseases, autoimmune diseases, fibrotic diseases, and cancer diseases” (MEIJI SEIKA PHARMA CO., LTD., priority 2018, dated 2025).

Where two headings read alike, the source gives them in different places.

One data set has as its system PDE4. In words: Evaluation of PDE4 inhibitory activity, scintillation proximity assay. In kind it is biochemical. In a few lines:
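IC50 was derived from inhibition curves, referenced to an enzyme-free blank and a DMSO-only control. Compound, PDE4 preparation and tritiated cAMP reacted 120 min at RT in Tris-HCl buffer (pH 7.4) with MgCl2, EGTA and BSA; YSi-SPA beads with ZnSO4 bound product before scintillation counting.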

Data set [1] in a line: Hepatic metabolic stability (rat liver microsome method). In kind it is in vitro ADME. The following applies: rat liver microsomes 0.5 mg/mL, test substance 1 μM, NADPH 1 mM, 37° C., 30 minutes. Put shortly:
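Scored by % parent left after 30 min (30 min/0 min ×100, LC-MS), banded A ≥75%, B 60–<75%, C 45–<60%, D <45%. Incubation: 1 μM compound, 0.5 mg/mL rat microsomes, pH 7.4 phosphate buffer, 37° C, 5 min preincubation, NADPH 1 mM started, acetonitrile quench.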
On the technique in general: Liver microsomes are vesicles of endoplasmic reticulum, rich in cytochrome P450 enzymes.

In data set [2] the test system is TNFα. In words: Cytokine suppression using whole human blood: TNFα (lipopolysaccharide stimulus). In kind it is cell-based. The following applies: Homo sapiens, human whole blood; read-out: TNFα Inhibitory Activity, Human Whole Blood (Test Example 3). The protocol:
The test compound dissolved in dimethyl sulfoxide was added to a 96-well plate, and RPMI-1640 medium and human peripheral blood containing sodium heparin were added, followed by culture at 37° C. under 5% CO2 for 1 hour. A medium containing only dimethyl sulfoxide instead of the test compound was added to the control well. To each well, lipopolysaccharide (final concentration 10 ng/mL) as a TNFα production stimulant, or phytohaemagglutinin (final concentration 20 μg/mL) as an IL-17A production stimulant, or CytoStim reagent ( 1/100 concentration) and CD28 antibody (final concentration 2.5 ng/mL) as an IL-4 production stimulant and an IL-5 production stimulant were added, followed by culture at 37° C. under 5% CO2. The culture was carried out for about 18 hours for the evaluation of the amount of TNFα, and for about 48 hours for the evaluation of the amounts of IL-17A, IL-4, and IL-5.
After collecting the culture supernatant after culturing, the amount of each cytokine was measured by the sandwich ELISA method. The cytokine production suppression rate (inhibition rate) by the test compound was calculated by the following formula from the cytokine production amount when the test compound was added, with the cytokine production amount for the control well as 100%. Inhibition Rate={1−(Cytokine Amount at Addition of Each Test Compound)/(Cytokine Amount for Control Well)}×100
In addition, the cytokine inhibitory activity (concentration for the inhibition rate of 50%) of the test compound was calculated from the inhibition curves based on the inhibition rates for various concentrations of the test compound.
The measurement results obtained by measuring the TNFα inhibitory activity and IL-5 inhibitory activity (50% inhibitory concentration) of the test compounds by the above method were evaluated in accordance with the following evaluated basis; A: less than 100 nM, B: 100 nM or more and less than 500 nM, and C: 500 nM or more. In addition, the measurement results obtained by measuring the IL-17A inhibitory activity and IL-4 inhibitory activity (50% inhibitory concentration) of the test compounds were evaluated in accordance with the following evaluated basis; A: less than 500 nM, B: 500 nM or more and less than 5000 nM, and C: 5000 nM or more.

The test system of data set [3] is oxazolone-induced auricle edema, BALB/c mice. In words: Hapten repeated application mouse chronic dermatitis model (oral, topical). In kind it is in vivo. The following applies: for Mouse Chronic Dermatitis Model (Test Example 8), Topical: edema suppression rate: 20 μL of 0.3 to 3% solution once or twice a day for 10 days. Put shortly: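 Female BALB/c mice aged 7–8 weeks were sensitised abdominally with 3% oxazolone, then challenged on both ears with 1% oxazolone. From week 1, test compound was given for 10 days orally at 0.3–10 mg/kg twice daily in 0.5% MC, or topically at 0.3–3% once or twice daily. Ear-thickness change measured by dial gauge gave edema suppression versus vehicle control.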

Data set [4] shares this test system. Kind of data set: Mouse delayed type hypersensitivity (DTH) model (topical). In kind it is in vivo. The following applies: 20 μL applied to auricle, 24 hours after application. The protocol:
Evaluation was carried out using female BALB/c mice (7 to 8 weeks of age). First, the hair of the abdomen of the mice was treated with a hair clipper, and then 150 μL of a 3% oxazolone acetone/ethanol solution was applied to the abdomen as a hapten. Five days later, 20 μL/ear of a 1% oxazolone.acetone/ethanol solution was applied to the outer surface of the auricle of both ears of the mouse to induce inflammation. Thirty minutes after the start of inflammation induction, 20 μL of the test compound dissolved in an acetone/ethanol solution was applied to the auricle. A 1% oxazolone was not applied to the blank. The control was one in which 1% oxazolone was applied and only an acetone/ethanol solution was applied without using the test compound. The auricle thickness 24 hours after application of the test compound was measured with a dial thickness gauge, and the value obtained by subtracting the blank value was used to calculate the edema suppression rate by the following formula. Edema Suppression Rate (%)={1−(Value at Addition of Each Test Compound−Blank Value)/(Control Value−Blank Value)}×100 The measurement results obtained by measuring the edema suppression rate at the time of topical administration of each test compound by the above method were evaluated in accordance with the following evaluated basis; A: 60% or more, B: 40% or more and less than 60%, and C: less than 40%.

The subject of data set [5] is substance P-induced pruritus behavior, ICR mice. Kind of data set: Mouse pruritus model. In kind it is in vivo. The following applies: oral, substance P intradermally 2 hours after administration. As to the method: Evaluation was carried out using male ICR mice (5 to 7 weeks of age). A micro magnet was embedded under the skin of both hind limbs of the mice in advance, and the hair on the back of the mouse neck was shaved. On the day of the test, the test compound was dissolved or suspended in 0.5% w/v methylcellulose (0.5% MC) and orally administered. Two hours after administration of the test compound, 50 μL of 300 nM substance P dissolved in saline was intradermally administered to the back of the mouse neck. The blank was a non-pruritus-induced group orally administered with 0.5% MC instead of the test compound and intradermally administered with saline instead of substance P, and the pruritus induction control was a group orally administered with 0.5% MC instead of the test compound. The pruritus measurement system for small animals, MicroAct II, automatically measured pruritus behavior for 30 minutes immediately after intradermal administration.

Data set [6] deals with TNFα. In words: Cytokine suppression using human peripheral blood mononuclear cells: TNFα. In kind it is cell-based. The following applies: human PBMC, lipopolysaccharide 1 ng/mL; read-out: TNFα Inhibitory Activity, Human PBMC (Test Example 4). As to the method: First, peripheral blood mononuclear cells (PBMC) were separated from whole blood by specific gravity centrifugation. Then, the isolated peripheral blood mononuclear cells were added to RPMI-1640 medium (containing 10% fetal bovine serum, penicillin, streptomycin, L-glutamine, and 2-mercaptoethanol), and cultured in a 96-well plate at 37° C. under 5% CO2 for 0 to 1 hour. The test compound dissolved in dimethyl sulfoxide was added to each well, followed by further culture at 37° C. under 5% CO2 for 1 hour. A medium containing only dimethyl sulfoxide instead of the test compound was added to the control well. To each well, lipopolysaccharide (final concentration 1 ng/mL) as a TNFα production stimulant and an IL-23 production stimulant, or concanavalin A (final concentration 20 μg/mL) as an IL-17A production stimulant was added, followed by culture at 37° C. under 5% CO2. In addition, as IL-4 production stimulus, IL-5 production stimulus, and IL-13 production stimulus, PBMC was seeded on a 96-well plate previously coated with a CD3 antibody (final concentration 3 μg/mL), and a CD28 antibody (final concentration 5 ng/mL) was added. The culture was carried out for about 18 hours for the evaluation of the amounts of TNFα and IL-23, and about 48 hours for the evaluation of the amounts of IL-17A, IL-4, IL-5, and IL-13. After collecting the culture supernatant after culturing, the amount of each cytokine was measured by the sandwich ELISA method in the same manner as in Test Example 3, and the cytokine production suppression rate (inhibition rate) and the cytokine inhibitory activity (concentration for the inhibition rate of 50%) of each test compound were calculated.
The measurement results obtained by measuring the TNFα inhibitory activity and IL-5 inhibitory activity (50% inhibitory concentration) of the test compounds by the above method were evaluated in accordance with the following evaluated basis; A: less than 10 nM, B: 10 nM or more and less than 100 nM, and C: 100 nM or more. In addition, the measurement results obtained by measuring the IL-17A inhibitory activity, IL-23 inhibitory activity, IL-4 inhibitory activity, and IL-13 inhibitory activity (50% inhibitory concentration) of the test compounds were evaluated in accordance with the following evaluated basis; A: less than 500 nM, B: 500 nM or more and less than 5000 nM, and C: 5000 nM or more.

Setting [7] is: finer grading of compounds rated A in Evaluation 1, read-out: PDE4 Inhibitory Activity (Evaluation 2).

Regarding `CC(O)C(F)(F)Oc1ccc(-c2nccs2)c2oc(N3CC4CC(C3)N4)nc12` (single isomer, unassigned) [Example 251, 1-((2-(3,6-Diazabicyclo[3.1.1]heptan-3-yl)-7-(thiazol-2-yl)benzo[d]oxazol-4-yl)oxy)-1,1-difluoropropan-2-ol], the IC50 in the data set on PDE4 (setting [7]) is ≤ 1 nM; with PDE4 (scintillation proximity assay, read-out: PDE4 Inhibitory Activity (Evaluation 1; concentration for the inhibition rate of 50%)) it was < 100 nM; with TNFα [2], < 100 nM. Further, in the data set on PDE4 (summary in words of Tables 57 to 69), the PDE4 inhibitory activity result is “particularly excellent”. Further, the “Residual ratio (% remaining for 30-minute reaction)” value in data set [1] was “A (A: a % remaining rate of 75% or more)”. Besides, the “Mouse Chronic Dermatitis Model (Test Example 8), Oral: edema suppression rate” value in data set [3] (oral, 0.3 to 10 mg/kg twice a day for 10 days) is “B (B: 40% or more and less than 70%)”. Also, the “Mouse Chronic Dermatitis Model (Test Example 8), Topical: edema suppression rate” value in data set [3] is given as “A (A: 100% or more)”. For the same compound, the “Mouse DTH Model (Test Example 11), Topical: edema suppression rate” value in data set [4] was “B (B: 40% or more and less than 60%)”.

For the compound `CC(C)(C(=O)O)c1ccc(C(O)CCCN2CCC(C(O)(c3ccccc3)c3ccccc3)CC2)cc1` (stereo not shown) [fexofenadine, reference compound], in data set [5], the “scratching behavior (pruritus behavior for 30 minutes)” value is recorded as “did not suppress scratching behavior”.

Consider `N#Cc1ccc(Oc2ccc3c(c2)COB3O)cc1` [crisaborole, reference compound], for which the IC50 in the data set with PDE4 (setting [7]) and in the data set with TNFα [6] was > 100 nM in each case. Besides, the “Mouse Chronic Dermatitis Model (Test Example 8), Topical: edema suppression rate” value in data set [3] was “C (C: less than 70%)”. For the same compound, in data set [4], the “Mouse DTH Model (Test Example 11), Topical: edema suppression rate” value is recorded as “C (C: less than 40%)”.
